Activity calls are given as the source filed them.
Tests used:
Caspase-1 (Homo sapiens) [1] = molecular target: T1, Caspase-1 (Homo sapiens) (UniProt P29466); experiment: Inhibition of recombinant human caspase-1 expressed in Escherichia coli BL21 cells assessed as remaining activity at 10 uM using […] as substrate incubated for 30 mins relative to control
T1 sequence (whole entry): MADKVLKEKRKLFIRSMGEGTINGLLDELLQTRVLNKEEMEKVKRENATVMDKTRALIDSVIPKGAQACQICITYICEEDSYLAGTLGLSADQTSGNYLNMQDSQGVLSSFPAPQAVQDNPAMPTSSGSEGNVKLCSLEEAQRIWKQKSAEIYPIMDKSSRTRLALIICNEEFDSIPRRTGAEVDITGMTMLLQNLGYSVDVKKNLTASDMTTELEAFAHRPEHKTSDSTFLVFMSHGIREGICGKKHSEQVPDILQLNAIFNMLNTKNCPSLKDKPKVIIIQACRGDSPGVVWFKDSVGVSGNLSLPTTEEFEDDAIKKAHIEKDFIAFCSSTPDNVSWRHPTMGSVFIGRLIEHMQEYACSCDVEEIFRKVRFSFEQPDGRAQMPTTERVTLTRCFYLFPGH

Caspase-1 (Homo sapiens) [2] = molecular target: T1, Caspase-1 (Homo sapiens); experiment: Inhibition of recombinant human caspase-1 expressed in Escherichia coli BL21 cells assessed as remaining activity at 100 uM using […] as substrate incubated for 30 mins relative to control
Caspase-1 (Homo sapiens) [3] = molecular target: T1, Caspase-1 (Homo sapiens); experiment: Inhibition of recombinant human caspase-1 expressed in Escherichia coli BL21 cells at 5 to 50 uM using […] as substrate incubated for 30 mins; settings: dose 5-50 µM
[4] = molecular target: NACHT, LRR and PYD domains-containing protein 3 (Mus musculus) (UniProt Q8R4B8); experiment: Inhibition of NLRP3 inflammasome activation in LPS/ATP stimulated mouse J774.A1 cells assessed as reduction in IL-1beta production incubated for 30 mins by ELISA; assay type: cell-based
NACHT, LRR and PYD domains-containing protein 3 (Mus musculus), sequence (Q8R4B8 whole entry, the tested form may be a part): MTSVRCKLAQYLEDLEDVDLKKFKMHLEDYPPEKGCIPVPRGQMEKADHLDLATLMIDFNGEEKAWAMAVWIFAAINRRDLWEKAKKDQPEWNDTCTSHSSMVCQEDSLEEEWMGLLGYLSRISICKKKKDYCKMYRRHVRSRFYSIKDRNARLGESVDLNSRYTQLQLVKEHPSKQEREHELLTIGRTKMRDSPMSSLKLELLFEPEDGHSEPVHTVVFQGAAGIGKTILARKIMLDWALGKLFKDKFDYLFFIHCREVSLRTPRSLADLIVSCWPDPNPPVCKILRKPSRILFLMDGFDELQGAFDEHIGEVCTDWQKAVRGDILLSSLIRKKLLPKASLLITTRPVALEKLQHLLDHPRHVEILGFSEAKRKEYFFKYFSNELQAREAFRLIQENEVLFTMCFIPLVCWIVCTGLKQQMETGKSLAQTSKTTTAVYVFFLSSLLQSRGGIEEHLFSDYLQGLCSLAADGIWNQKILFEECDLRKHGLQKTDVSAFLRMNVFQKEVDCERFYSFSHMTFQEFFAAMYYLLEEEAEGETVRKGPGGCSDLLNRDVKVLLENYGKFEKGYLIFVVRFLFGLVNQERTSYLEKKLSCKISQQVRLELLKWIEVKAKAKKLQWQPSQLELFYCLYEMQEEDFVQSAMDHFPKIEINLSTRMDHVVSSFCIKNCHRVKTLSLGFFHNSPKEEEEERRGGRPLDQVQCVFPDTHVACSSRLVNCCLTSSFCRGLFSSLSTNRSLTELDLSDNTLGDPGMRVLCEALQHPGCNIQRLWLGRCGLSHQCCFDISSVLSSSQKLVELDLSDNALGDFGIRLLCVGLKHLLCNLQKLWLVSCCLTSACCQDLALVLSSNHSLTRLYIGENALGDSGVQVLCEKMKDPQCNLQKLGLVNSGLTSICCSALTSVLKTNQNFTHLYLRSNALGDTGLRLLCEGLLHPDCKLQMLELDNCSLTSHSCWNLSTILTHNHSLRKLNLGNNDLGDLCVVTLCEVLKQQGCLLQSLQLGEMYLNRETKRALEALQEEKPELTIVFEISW

[5] = molecular target: NACHT, LRR and PYD domains-containing protein 3 (Mus musculus) (UniProt Q8R4B8); experiment: Inhibition of NLRP3 inflammasome activation in LPS/ATP stimulated mouse J774.A1 cells assessed as reduction in IL-18 production incubated for 30 mins by ELISA; assay type: cell-based
[6] = molecular target: NACHT, LRR and PYD domains-containing protein 3 (Mus musculus) (UniProt Q8R4B8); experiment: Inhibition of NLRP3 inflammasome activation in LPS/MSU stimulated mouse J774.A1 cells assessed as reduction in IL-1beta production incubated for 4 hrs by ELISA; assay type: cell-based
THP-1 [7] = experiment: Effect on pro-caspase 1 protein expression in LPS/nigericin stimulated human THP-1 cells supernatant at 0.5 to 2 uM by Western blotting analysis; assay type: functional, cell-based; settings: dose 0.5-2 µM
THP-1 [8] = experiment: Inhibition of p20 fragment of IL-1beta protein expression in LPS/nigericin stimulated human THP-1 cells supernatant at 0.5 to 2 uM by Western blotting analysis; assay type: functional, cell-based; settings: dose 0.5-2 µM
THP-1 [9] = experiment: Inhibition of p20 fragment of caspase 1 protein expression in LPS/MSU stimulated human THP-1 cells supernatant by Western blotting analysis; assay type: functional, cell-based
J774.A1 [10] = experiment: Downregulation of IKKalpha/beta phosphorylation in mouse J774.A1 cells at 0.5 to 2 uM preincubated for 30 mins followed by LPS addition and measured after 2 hrs by Western blotting analysis; assay type: functional, cell-based; settings: dose 0.5-2 µM, time 2.5 hrs
J774.A1 [11] = experiment: Inhibition of NLRP3 colocalization in LPS/nigericin stimulated mouse J774.A1 cells by fluorescent staining based assay; assay type: functional, cell-based
Caspase-1 (Mus musculus) [12] = molecular target: T2, Caspase-1 (Mus musculus) (UniProt P29452); experiment: Binding affinity to caspase-1 in LPS-induced mouse J774.A1 cells assessed as reduction in IL-1beta level at 0.5 uM preincubated with compound followed by nigericin addition; assay type: cell-based; settings: time 3-24 hrs, TDE = time-dependent effect
T2 sequence (whole entry): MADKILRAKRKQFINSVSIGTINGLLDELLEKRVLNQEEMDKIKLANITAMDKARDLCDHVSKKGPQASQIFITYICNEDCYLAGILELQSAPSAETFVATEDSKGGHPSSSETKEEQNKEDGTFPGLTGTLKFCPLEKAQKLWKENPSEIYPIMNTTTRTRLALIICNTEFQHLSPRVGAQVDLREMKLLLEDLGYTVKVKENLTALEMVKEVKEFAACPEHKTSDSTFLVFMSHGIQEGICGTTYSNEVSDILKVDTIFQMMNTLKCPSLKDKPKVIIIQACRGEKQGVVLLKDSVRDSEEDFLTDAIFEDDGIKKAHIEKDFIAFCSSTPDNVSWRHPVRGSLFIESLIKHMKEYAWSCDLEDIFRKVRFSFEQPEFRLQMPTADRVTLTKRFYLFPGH

Caspase-1 (Mus musculus) [13] = molecular target: T2, Caspase-1 (Mus musculus); experiment: Irreversible binding affinity to caspase-1 in LPS-induced mouse J774.A1 cells assessed as reduction in IL-1beta level at 0.5 to 2 uM pretreated with LPS for 3 hrs followed by compound addition for 30 mins prior to compound washout then nigericin addition for 1 hr by ELISA; assay type: cell-based; settings: dose 0.5-2 µM
[14] = system: Caspase-1 (Homo sapiens), P29466 [C244A]; experiment: Binding affinity to recombinant caspase-1 C244A mutant (unknown origin) at 2 uM by SDS-PAGE analysis
Caspase-1 (Homo sapiens), P29466 [C244A], sequence (P29466 whole entry C244A): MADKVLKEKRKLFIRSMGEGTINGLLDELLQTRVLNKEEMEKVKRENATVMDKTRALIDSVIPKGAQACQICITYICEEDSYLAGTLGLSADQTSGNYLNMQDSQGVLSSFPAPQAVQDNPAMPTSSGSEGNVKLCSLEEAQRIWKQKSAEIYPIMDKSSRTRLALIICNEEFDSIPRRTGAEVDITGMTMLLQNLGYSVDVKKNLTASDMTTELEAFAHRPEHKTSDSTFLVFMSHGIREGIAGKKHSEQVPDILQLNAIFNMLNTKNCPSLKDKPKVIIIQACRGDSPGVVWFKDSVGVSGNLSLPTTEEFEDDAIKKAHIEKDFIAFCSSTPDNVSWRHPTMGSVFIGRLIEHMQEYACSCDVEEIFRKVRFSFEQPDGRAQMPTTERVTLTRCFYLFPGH

[15] = system: Caspase-1 (Homo sapiens), P29466 [C397A]; experiment: Binding affinity to Flag-tagged caspase-1 C397A mutant (unknown origin) expressed in HEK293T cells by pull-down assay; assay type: cell-based
Caspase-1 (Homo sapiens), P29466 [C397A], sequence (P29466 whole entry C397A): as the sequence (P29466 whole entry C244A) above, with A244C, C397A counted along it

HEK293T [16] = experiment: Inhibition of recombinant caspae-1 C169A mutant (unknown origin) to GSDMD (unknown origin) interaction expressed in HEK293T cells; assay type: cell-based; settings: Homo sapiens
HEK293T [17] = experiment: Inhibition of recombinant caspae-1 C244A mutant (unknown origin) to GSDMD (unknown origin) interaction expressed in HEK293T cells; assay type: cell-based; settings: Homo sapiens
[18] = Tmax in rat at 10 mg/kg, iv; assay type: ADME, organism-based; settings: in vivo
Mus musculus [19] = experiment: (§1) Anti-inflammatory activity in MSU/C18:0 free fatty acid induced Kunming mouse model of gouty arthritis assessed as reduction in joint swelling at 5 to 20 mg/kg, ip preadministered with compound for 30 mins followed by MSU/C18:0 free fatty acid injection and measured after 24 hrs; assay type: functional, organism-based; settings: dose 5-20 mg/kg, time 24.5 hrs
Mus musculus [20] = experiment: as §1, with “NLRP3 expression” for “in joint swelling”, “hrs by Western blotting analysis” for “hrs”; assay type: functional, organism-based; settings: dose 5-20 mg/kg, time 24.5 hrs
Mus musculus [21] = experiment: as §1, with “IL-1beta expression” for “in joint swelling”, “hrs by Western blotting analysis” for “hrs”; assay type: functional, organism-based; settings: dose 5-20 mg/kg, time 24.5 hrs
Mus musculus [22] = experiment: as §1, with “p20 expression” for “in joint swelling”, “hrs by Western blotting analysis” for “hrs”; assay type: functional, organism-based; settings: dose 5-20 mg/kg, time 24.5 hrs
Mus musculus [23] = experiment: Anti-inflammatory activity in MSU/C18:0 free fatty acid induced ip dosed Casp1 knockout Kunming mouse model of gouty arthritis assessed as reduction in IL-beta production preadministered with compound for 30 mins followed by MSU/C18:0 free fatty acid injection and measured after 24 hrs by ELISA; assay type: functional, organism-based; settings: time 24.5 hrs
Mus musculus [24] = experiment: Anti-inflammatory activity in LPS/MSU-induced C57BL/6 mouse model of acute peritonitis assessed as reduction in IL-1beta expression at 20 mg/kg, ip preadministered intraperitoneally with compound for 30 mins followed by MSU injection and measured after 6 hrs by ELISA; assay type: functional, organism-based; settings: time 6.5 hrs

COc1ccc2c(c1)[C@]1(C=C[C@H](N=C=S)C[C@H]1C(=O)OC(C)(C)C)C(=O)N2C(=O)OCc1ccccc1
31%: Activity (Caspase-1 (Homo sapiens) [1])
4.98 min: Tmax [18]
inactive: Activity (THP-1 [7]) | Activity [15] | Activity (Mus musculus [23])
16%: Activity (Caspase-1 (Homo sapiens) [2])
active: inhibition (active/not active) (Caspase-1 (Homo sapiens) [3]) | inhibition [4] | inhibition [5] | inhibition [6] | inhibition (THP-1 [8]) | inhibition (THP-1 [9]) | Activity (J774.A1 [10]) | inhibition (J774.A1 [11]) | Activity (Caspase-1 (Mus musculus) [12]) Tde | Activity (Caspase-1 (Mus musculus) [13]) | Activity [14] | inhibition (HEK293T [16]) | inhibition (HEK293T [17]) | Activity (Mus musculus [19]) | Activity (Mus musculus [20]) | Activity (Mus musculus [21]) | Activity (Mus musculus [22]) | Activity (Mus musculus [24])

Source: ChEMBL document CHEMBL5584334, “Discovery of a Covalent Inhibitor of Pro-Caspase-1 Zymogen Blocking NLRP3 Inflammasome Activation and Pyroptosis” (J Med Chem, 2024)
